From ChEMBL document CHEMBL1129317, “Novel selective and partial agonists of 5-HT3 receptors. Part 1. Synthesis and biological evaluation of piperazinopyrrolothienopyrazines” (J Med Chem, 1996) come the findings set out here.

Assay [1] has as its target T1, Serotonin 3 (5-HT3) receptor (Rattus norvegicus) (UniProt P35563+Q9JJ16). Nature of the assay: Agonistic activity of compound towards 5-hydroxytryptamine 3 receptorr in Von Bezold-Jarisch Reflex in rats at 100 (ug/kg), evaluated as change in heart rate. The assay is classed as functional.
Assay [2] concerns the target 5-hydroxytryptamine receptor 2A (Bos taurus, UniProt Q75Z89). The assay can be described thus: Binding affinity towards 5-hydroxytryptamine 2A receptor.
In a further assay the test system is NG108-15. Nature of the assay: In vitro effective concentration against [14C]guanidinium uptake into NG 108-15 cells. The note with it: Murinae, read-out: ED50 (the source's name). The assay is classed as functional.
For assay [3], the target named is T1, Serotonin 3 (5-HT3) receptor (Rattus norvegicus). The assay can be described thus: Antagonistic activity of compound towards 5-hydroxytryptamine 3 receptor in Von Bezold-Jarisch reflex in rats at 60(ug/kg), evaluated as percent inhibition of bradycardia. The assay is classed as functional.
Assay [4] deals with 5-hydroxytryptamine receptor 1D (Sus scrofa, UniProt P79400). The assay can be described thus: Binding affinity for 5-hydroxytryptamine 1D receptor.
In assay [5] the target is T2, Serotonin 3 (5-HT3) receptor (Rattus norvegicus, UniProt P35563+Q9JJ16).
T2 sequence (P35563 whole entry): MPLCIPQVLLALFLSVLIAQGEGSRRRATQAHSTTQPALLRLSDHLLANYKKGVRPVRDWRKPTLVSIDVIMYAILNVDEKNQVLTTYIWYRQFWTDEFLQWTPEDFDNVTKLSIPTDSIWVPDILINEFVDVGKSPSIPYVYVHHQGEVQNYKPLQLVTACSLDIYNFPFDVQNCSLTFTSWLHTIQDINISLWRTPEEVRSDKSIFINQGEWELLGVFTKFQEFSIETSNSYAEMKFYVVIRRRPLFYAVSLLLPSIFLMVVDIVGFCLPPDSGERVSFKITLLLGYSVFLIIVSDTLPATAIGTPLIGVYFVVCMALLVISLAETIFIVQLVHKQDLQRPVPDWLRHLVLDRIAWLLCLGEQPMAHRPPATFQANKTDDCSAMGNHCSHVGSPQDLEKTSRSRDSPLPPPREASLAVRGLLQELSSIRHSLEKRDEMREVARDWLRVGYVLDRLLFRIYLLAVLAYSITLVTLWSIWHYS
T2 sequence (Q9JJ16 whole entry): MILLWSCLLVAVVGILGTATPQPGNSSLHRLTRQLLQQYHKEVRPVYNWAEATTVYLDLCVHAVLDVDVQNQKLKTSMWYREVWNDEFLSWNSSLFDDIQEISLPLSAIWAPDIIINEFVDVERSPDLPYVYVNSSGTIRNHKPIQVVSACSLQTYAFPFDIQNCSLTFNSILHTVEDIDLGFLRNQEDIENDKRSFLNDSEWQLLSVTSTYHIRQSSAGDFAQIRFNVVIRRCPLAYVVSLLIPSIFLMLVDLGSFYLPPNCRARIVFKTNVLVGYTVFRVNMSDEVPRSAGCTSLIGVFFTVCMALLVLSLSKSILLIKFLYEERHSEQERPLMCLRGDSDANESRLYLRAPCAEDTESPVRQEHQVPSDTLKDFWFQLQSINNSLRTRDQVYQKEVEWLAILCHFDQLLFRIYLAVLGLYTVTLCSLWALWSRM
The assay can be described thus: Binding affinity towards 5-hydroxytryptamine 3 receptor. The assay is classed as protein-complex assay.

Assay [6] concerns the target T3, 5-hydroxytryptamine receptor 2C (Homo sapiens, UniProt P28335).
T3 sequence (P28335 whole entry): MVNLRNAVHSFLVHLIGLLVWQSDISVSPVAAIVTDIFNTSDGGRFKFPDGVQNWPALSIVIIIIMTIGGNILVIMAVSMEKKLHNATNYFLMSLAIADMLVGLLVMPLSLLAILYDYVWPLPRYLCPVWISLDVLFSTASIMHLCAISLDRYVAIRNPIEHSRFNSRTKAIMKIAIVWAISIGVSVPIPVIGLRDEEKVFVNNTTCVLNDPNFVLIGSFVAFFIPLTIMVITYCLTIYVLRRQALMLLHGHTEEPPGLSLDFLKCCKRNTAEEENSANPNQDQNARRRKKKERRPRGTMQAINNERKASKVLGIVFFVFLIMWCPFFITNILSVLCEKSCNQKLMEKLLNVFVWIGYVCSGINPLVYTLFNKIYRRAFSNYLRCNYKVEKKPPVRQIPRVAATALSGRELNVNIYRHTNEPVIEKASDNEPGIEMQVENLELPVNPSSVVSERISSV
Nature of the assay: Binding affinity towards 5-hydroxytryptamine 2C receptor.

Assay [7] addresses 5-hydroxytryptamine receptor 1B (Rattus norvegicus, UniProt P28564). The assay can be described thus: Binding affinity for 5-hydroxytryptamine 1B receptor.
Assay [8] has as its target T1, Serotonin 3 (5-HT3) receptor (Rattus norvegicus). Nature of the assay: Agonistic activity of compound towards 5-hydroxytryptamine 3 receptor in Von Bezold-Jarisch Reflex in rats at 60 (ug/kg), evaluated as change in heart rate. It counts as functional.
Assay [9] has as its target T4, 5-hydroxytryptamine receptor 1A (Homo sapiens, UniProt P08908).
T4 sequence (P08908 whole entry): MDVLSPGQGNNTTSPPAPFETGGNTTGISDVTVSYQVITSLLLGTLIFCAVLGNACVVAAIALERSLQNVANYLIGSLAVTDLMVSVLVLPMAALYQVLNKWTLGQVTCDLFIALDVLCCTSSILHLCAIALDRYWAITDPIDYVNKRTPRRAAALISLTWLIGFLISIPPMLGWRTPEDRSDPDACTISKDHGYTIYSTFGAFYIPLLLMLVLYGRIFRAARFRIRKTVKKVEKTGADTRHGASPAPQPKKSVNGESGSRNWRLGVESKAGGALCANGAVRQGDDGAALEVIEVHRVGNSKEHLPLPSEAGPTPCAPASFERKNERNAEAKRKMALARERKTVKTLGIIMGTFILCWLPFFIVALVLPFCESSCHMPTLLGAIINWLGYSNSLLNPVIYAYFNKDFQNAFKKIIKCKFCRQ
Nature of the assay: Binding affinity for 5-hydroxytryptamine 1A receptor.

Structures are written as SMILES.

Sequence of 5-hydroxytryptamine receptor 1B (P28564 whole entry): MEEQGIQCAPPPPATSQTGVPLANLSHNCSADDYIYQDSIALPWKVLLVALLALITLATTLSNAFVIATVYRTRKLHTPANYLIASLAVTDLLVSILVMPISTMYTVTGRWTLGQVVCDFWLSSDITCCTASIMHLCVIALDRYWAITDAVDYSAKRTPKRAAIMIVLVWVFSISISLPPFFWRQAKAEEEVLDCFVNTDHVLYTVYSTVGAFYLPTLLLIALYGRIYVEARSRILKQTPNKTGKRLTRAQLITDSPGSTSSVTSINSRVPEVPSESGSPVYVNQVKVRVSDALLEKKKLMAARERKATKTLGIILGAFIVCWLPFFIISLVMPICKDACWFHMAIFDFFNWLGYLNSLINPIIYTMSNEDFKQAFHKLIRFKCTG
Sequence of 5-hydroxytryptamine receptor 2A (Q75Z89 whole entry): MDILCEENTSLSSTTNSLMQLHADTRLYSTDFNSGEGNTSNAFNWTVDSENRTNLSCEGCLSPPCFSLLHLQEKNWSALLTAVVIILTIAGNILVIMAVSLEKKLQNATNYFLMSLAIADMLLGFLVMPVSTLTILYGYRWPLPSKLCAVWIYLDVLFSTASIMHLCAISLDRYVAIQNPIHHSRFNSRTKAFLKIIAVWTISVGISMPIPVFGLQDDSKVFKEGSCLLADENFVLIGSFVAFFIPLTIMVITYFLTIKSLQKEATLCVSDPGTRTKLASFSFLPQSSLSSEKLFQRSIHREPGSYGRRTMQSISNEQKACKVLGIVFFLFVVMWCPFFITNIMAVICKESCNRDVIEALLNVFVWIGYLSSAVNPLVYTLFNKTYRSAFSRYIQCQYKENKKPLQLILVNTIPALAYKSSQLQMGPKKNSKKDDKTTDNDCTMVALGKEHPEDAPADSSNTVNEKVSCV
Sequence of 5-hydroxytryptamine receptor 1D (P79400 whole entry): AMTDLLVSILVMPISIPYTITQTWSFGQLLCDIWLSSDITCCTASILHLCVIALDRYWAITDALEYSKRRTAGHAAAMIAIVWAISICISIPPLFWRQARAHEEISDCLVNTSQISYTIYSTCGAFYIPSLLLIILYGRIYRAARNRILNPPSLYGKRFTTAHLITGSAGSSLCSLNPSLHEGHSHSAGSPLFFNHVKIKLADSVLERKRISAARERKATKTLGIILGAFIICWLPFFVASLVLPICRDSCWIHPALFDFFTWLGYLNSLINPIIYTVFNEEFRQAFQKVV

For the molecule `C=CCN1CCN(c2nc3sccc3n3cccc23)CC1`, the Change in assay [1] turned out to be 72%; in assay [3], 67%; in [8], 30%. Besides, the IC50 in assay [2] was 2340 nM; in [4], 468 nM; in assay [5] it was 0.912 nM; in assay [6] it was 759 nM; in [7] it was 417 nM; in [9] it was 67.6 nM. For the same molecule, in the assay on NG108-15, the EC50 stood at 4 nM.
